Measurements: patent publication US8273782B2, “Inhibitors of Akt activity” (GlaxoSmithKline LLC, priority 2007, dated 2012)

Experiments:
[1] = molecular target: T1, full length AKT3 (Homo sapiens, UniProt Q9Y243); experiment: AKT enzyme assay (substrate phosphorylation, SPA), full length AKT3; type: biochemical; settings: in at least one experimental run; pIC50 = -log(IC50), IC50 in molar units
T1 construct: Full length AKT2 and full length AKT3 were cloned, expressed and purified in a similar fashion; His tag (inferred: made in a similar fashion to AKT1 in pFastbacHTb with nickel purification) (N); made in house; host or cells: baculovirus; insect cells (by analogy with AKT1)
T1 sequence (Q9Y243 whole entry): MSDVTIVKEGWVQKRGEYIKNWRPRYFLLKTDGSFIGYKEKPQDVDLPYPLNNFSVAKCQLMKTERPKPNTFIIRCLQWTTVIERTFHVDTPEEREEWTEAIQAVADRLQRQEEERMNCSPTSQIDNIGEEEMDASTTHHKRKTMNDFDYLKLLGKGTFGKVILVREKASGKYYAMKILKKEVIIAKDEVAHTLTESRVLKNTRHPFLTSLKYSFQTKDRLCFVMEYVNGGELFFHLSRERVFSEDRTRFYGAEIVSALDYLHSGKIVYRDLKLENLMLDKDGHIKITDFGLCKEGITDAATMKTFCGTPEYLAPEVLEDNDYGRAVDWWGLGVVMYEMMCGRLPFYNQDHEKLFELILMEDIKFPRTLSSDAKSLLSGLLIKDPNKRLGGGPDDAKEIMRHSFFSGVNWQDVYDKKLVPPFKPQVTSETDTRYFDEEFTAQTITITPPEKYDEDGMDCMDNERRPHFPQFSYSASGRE
Method: Compounds of the present invention are tested for AKT 1, 2, and 3 protein serine kinase inhibitory activity in substrate phosphorylation assays. This assay examines the ability of small molecule organic compounds to inhibit the serine phosphorylation of a peptide substrate. […] AKT 1, 2 and 3 are also commercially available from Upstate USA, Inc. The method measures the ability of the isolated enzyme to catalyze the transfer of the gamma-phosphate from ATP onto the serine residue of a biotinylated synthetic peptide SEQ. […] Substrate phosphorylation is detected by the following procedure:
ATP/well, 1 mM CHAPS, 2 mM DTT, and 1 ul of test compound in 100% DMSO. The reaction is stopped by the addition of 50 ul SPA bead mix (Dulbecco's PBS without Mg^2+ and Ca^2+, 0.1% Triton X-100, 5 mM EDTA, 50 uM ATP, 2.5 mg/ml Streptavidin-coated SPA beads.) The plate is sealed, the beads are allowed to settle overnight, and then the plate is counted in a Packard Topcount Microplate Scintillation Counter (Packard Instrument Co., Meriden, Conn.).
The data for dose responses are plotted as % Control calculated with the data reduction formula 100*(U1−C2)/(C1−C2) versus concentration of compound where U is the unknown value, C1 is the average control value obtained for DMSO, and C2 is the average control value obtained for 0.1M EDTA. […]

[2] = molecular target: T2, full length AKT1 (Homo sapiens, UniProt P31749); experiment: AKT enzyme assay (substrate phosphorylation, SPA), full length AKT1; type: biochemical; settings: in at least one experimental run; pIC50 = -log(IC50), IC50 in molar units
T2 construct: Full-length human AKT1 gene was amplified by PCR; His tag (from vector pFastbacHTb; N-terminal position is own knowledge of the vector) (N); made in house; host or cells: baculovirus; Sf9 / T. ni insect cells
T2 sequence (P31749 whole entry): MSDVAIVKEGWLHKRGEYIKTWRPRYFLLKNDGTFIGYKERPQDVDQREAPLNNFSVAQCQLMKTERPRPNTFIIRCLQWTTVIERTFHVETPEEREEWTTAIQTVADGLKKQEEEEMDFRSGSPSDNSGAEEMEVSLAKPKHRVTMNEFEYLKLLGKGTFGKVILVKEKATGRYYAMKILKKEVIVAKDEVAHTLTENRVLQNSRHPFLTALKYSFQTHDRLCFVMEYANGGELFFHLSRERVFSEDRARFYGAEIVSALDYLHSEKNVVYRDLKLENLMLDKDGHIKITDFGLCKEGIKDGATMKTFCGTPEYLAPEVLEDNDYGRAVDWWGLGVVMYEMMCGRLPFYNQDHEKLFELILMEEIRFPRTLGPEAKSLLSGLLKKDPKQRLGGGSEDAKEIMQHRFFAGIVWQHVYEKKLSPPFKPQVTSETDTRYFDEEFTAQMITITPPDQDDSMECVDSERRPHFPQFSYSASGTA

pIC50 value against full length AKT3 [1]	pIC50 value against full length AKT1 [2]	SMILES
8.4	9.0	Cn1ncc(Cl)c1-c1cc(C(=O)N[C@H](CN)Cc2cccc(F)c2)oc1Cl [Example 137, N-{(1S)-2-amino-1-[(3-fluorophenyl)methyl]ethyl}-5-chloro-4-(4-chloro-1-methyl-1H-pyrazol-5-yl)-2-furancarboxamide]
7.6	8.8	Cc1sc(C(=O)N[C@H](CN)Cc2cccc(F)c2)cc1-c1c(Cl)cnn1C [Example 161, N-{(1S)-2-amino-1-[(3-fluorophenyl)methyl]ethyl}-4-(4-chloro-1-methyl-1H-pyrazol-5-yl)-5-methyl-2-thiophenecarboxamide]
